Like-named read-outs stand apart in the source and are kept apart here.
Tested on: rabbit isolated gastric glands
Assay: aminopyrine accumulation in rabbit isolated gastric glands (anti-secretory activity, H+/K+ ATPase inhibitors)
Format: cell-based
Details: 10^-4 M, % inhibition of the maximum response to the secretagogue; for inhibition at 100 µM: Oryctolagus cuniculus
Description: Compounds of formula I were tested for anti-secretory activity by their ability to inhibit the highly specific proton transporting enzyme H^+ /K^+ ATPase.
Potential H^+ /K^+ ATPase inhibitors were evaluated by a technique involving the measurements of aminopyrine accumulation in rabbit isolated gastric glands. Aminopyrine accumulates in acid-secreting cells; therefore, uptake of aminopyrine is increased by secretagogues and an inhibitor of acid secretion will reduce the response to one or more secretagogues depending upon its site of action. […] The following test procedure is used:
Rabbit gastric glands are isolated from gastric mucosa from the corpus region of the stomach by a method based on one described by Berglindh T., Obrink, K. J., Acta Physiol. Scand.
Results are expressed as the % inhibition of the maximum response to the secretagogue induced by the test compound. An inhibitor of H^+ /K^+ ATPase would be expected to reduce the response to both secretagogues.

[1] = 14C-aminopyrine uptake stimulated by DBcAMP, read-out: % Inhibition to stimulation by DBcAMP
[2] = 14C-aminopyrine uptake stimulated by high K+, read-out: % Inhibition to stimulation by K+

Compound | % Inhibition to stimulation by DBcAMP (14C-aminopyrine uptake stimulated by DBcAMP) [%] | % Inhibition to stimulation by K+ (14C-aminopyrine uptake stimulated by high K+) [%] | inhibition at 100 µM [1] [%] | inhibition at 100 µM [2] [%]
6-Ethoxy-2-(2-pyridyl)thiazolo[3,2-a]-benzimidazole and 7-ethoxy-2-(2-pyridyl)thiazolo[3,2-a]benzimidazole | 68 | 162 | – | –
CCc1ccc(-c2cn3c(nc4ccccc43)s2)nc1 [2-(2-(5-Ethylpyridyl))thiazolo[3,2-a]-benzaimidazole] | – | – | 56 | 142
c1ccc(-c2cccc(-c3cn4c(nc5ccccc54)s3)n2)cc1 [2-[2-(6-Phenylpyridyl)]thiazolo[3,2-a]benzimidazole] | – | – | 22 | 381

From patent US4794123A, “Thiazolo- and thiazino- benzimidazoles and their use as anti-ulcer agents” (John Wyeth & Brother Limited, priority 1983, dated 1988)
